Legend:
[1] = target: T1, Human Melanocortin (MC4) (Homo sapiens, UniProt P32245); assay: Radioligand binding, human melanocortin MC4 membranes, FlashPlate, [125I]-NDP-αMSH; conditions: compound at 10 μM, [125I]-NDP-αMSH
T1 construct: purchased Perkin Elmer Biosignal
In short: (§1)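 Cloned human receptor membranes were coated onto FlashPlate wells and incubated with radioligand and compound (added from a 0.5 mM DMSO daughter plate) for 1 hour at room temperature in the dark. Scintillation counting gave percent inhibition, with DMSO defining total and reference ligand defining non-specific binding.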

[2] = target: T2, Human melanocortin (MC5) (Homo sapiens, UniProt P33032); assay: Radioligand binding, human melanocortin MC5 membranes, FlashPlate, [125I]-NDP-αMSH; conditions: compound at 10 μM, [125I]-NDP-αMSH
T2 construct: purchased Perkin Elmer Biosignal
T2 sequence (P33032 whole entry): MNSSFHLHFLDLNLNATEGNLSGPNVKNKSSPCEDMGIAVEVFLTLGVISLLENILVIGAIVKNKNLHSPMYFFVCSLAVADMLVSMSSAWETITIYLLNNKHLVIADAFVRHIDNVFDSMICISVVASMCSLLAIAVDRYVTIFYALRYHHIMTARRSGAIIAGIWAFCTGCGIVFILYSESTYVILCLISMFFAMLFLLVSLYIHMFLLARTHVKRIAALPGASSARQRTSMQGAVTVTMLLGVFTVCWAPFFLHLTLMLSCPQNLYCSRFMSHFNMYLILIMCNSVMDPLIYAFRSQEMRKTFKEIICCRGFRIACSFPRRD
In short: as §1

[3] = target: T3, Human opioid (ORL1) (Homo sapiens, UniProt P41146); assay: Radioligand binding, human opioid ORL1 membranes, FlashPlate, [125I]-Nociceptin; conditions: compound at 10 μM, [125I]-Nociceptin
T3 construct: purchased Perkin Elmer Biosignal
T3 sequence (P41146 whole entry): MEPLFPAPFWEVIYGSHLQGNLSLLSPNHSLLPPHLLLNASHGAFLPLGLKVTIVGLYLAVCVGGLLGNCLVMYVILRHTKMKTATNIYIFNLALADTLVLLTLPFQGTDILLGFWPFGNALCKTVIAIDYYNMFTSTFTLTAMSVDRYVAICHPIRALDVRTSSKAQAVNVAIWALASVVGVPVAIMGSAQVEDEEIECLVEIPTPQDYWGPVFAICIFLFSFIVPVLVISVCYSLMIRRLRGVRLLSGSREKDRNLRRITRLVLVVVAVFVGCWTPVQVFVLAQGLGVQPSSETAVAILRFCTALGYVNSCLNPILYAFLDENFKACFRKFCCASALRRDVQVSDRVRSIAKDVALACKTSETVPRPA
In short: as §1

[4] = target: T4, Human μ-opioid (MOP) (Homo sapiens, UniProt P35372); assay: Radioligand binding, human μ-opioid (MOP) membranes, FlashPlate, [3H]-Naloxone; conditions: compound at 10 μM, [3H]-Naloxone
T4 construct: purchased Perkin Elmer Biosignal
T4 sequence (P35372 whole entry): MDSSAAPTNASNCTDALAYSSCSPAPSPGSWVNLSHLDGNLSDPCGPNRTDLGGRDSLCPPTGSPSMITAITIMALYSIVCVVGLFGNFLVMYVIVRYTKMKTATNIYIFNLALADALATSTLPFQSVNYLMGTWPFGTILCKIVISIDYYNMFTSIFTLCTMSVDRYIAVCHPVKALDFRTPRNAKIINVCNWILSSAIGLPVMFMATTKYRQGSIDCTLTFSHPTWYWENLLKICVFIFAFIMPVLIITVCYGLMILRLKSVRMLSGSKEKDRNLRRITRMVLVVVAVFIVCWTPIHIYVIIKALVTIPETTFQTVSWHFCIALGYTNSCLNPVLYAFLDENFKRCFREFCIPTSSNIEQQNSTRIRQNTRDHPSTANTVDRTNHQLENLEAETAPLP
In short: as §1

[5] = target: T5, Human melanin-concentrating hormone (MCH1) (Homo sapiens, UniProt Q99705); assay: Radioligand binding, human melanin-concentrating hormone MCH1 membranes, FlashPlate, [125I]-S36057; conditions: compound at 10 μM
T5 construct: purchased Perkin Elmer Biosignal
T5 sequence (Q99705 whole entry): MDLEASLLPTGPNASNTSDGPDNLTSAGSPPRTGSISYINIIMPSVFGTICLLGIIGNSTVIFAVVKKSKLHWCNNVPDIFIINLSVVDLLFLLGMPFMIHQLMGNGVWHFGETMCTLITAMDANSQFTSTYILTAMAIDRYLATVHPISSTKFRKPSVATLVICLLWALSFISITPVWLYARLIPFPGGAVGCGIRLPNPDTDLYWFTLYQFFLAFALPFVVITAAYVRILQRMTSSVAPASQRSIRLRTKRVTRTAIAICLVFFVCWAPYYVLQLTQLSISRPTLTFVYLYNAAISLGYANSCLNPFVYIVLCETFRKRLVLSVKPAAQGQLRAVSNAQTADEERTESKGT
In short: as §1

[6] = target: T6, Mouse urotensin (mUR2) (Mus musculus, UniProt Q8VIH9); assay: Radioligand binding, mouse urotensin mUR2 membranes, FlashPlate, [125I]-Urotensin II; conditions: compound at 10 μM, [125I]-Urotensin II
T6 construct: purchased Perkin Elmer Biosignal
T6 sequence (Q8VIH9 1-385): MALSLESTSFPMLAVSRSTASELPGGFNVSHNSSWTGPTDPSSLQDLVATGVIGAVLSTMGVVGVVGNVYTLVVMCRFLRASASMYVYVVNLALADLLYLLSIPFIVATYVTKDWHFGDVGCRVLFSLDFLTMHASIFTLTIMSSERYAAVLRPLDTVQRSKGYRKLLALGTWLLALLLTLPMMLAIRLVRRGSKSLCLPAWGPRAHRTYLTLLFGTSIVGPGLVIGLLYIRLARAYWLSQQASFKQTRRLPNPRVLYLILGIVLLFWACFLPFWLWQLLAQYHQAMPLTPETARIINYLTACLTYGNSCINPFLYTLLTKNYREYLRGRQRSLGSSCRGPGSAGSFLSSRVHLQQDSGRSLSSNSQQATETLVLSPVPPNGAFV
In short: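 Cloned mouse urotensin (mUR2) receptor membranes from Perkin Elmer Biosignal were immobilized in FlashPlate microplates using a proprietary coating. Each well got 19.5 μl buffer, then 0.5 μl of DMSO, reference ligand, or compound. Adding 5 μl of [125I]-Urotensin II, diluted to 5× final concentration in binding buffer, started binding. Plates were sealed with TopSeal-A and incubated 1 hour at room temperature in the dark. Wells were counted for 30 seconds each on a TopCount after a 60-second delay, and percentage inhibition was calculated.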

[7] = target: T7, Human κ-Opioid (KOP) (Homo sapiens, UniProt P41145); assay: Radioligand binding, human κ-opioid (KOP) membranes, filtration, [3H]-Diprenorphine; conditions: compound at 10 μM, [3H]-Diprenorphine
T7 construct: purchased Perkin Elmer Biosignal
T7 sequence (P41145 whole entry): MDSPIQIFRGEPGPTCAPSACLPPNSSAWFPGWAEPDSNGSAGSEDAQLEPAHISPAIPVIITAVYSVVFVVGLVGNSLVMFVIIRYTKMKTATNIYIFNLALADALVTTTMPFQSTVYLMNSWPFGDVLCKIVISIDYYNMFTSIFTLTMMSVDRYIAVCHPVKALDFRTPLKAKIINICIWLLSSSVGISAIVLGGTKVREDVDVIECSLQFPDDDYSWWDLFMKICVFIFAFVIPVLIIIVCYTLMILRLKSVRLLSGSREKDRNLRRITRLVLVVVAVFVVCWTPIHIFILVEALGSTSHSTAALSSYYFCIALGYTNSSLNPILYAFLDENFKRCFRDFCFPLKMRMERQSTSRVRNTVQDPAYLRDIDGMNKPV
In short: (§2)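 Membranes from cloned human receptors were incubated with compound and radioligand for 1 hour at room temperature. Bound ligand was collected on 0.3% PEI-soaked filters, washed with cold 50 mM Tris-HCl pH 7.4, and counted by scintillation. Percent inhibition was computed against DMSO totals and reference-ligand nonspecific wells.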

[8] = target: T8, Human Melanocortin (MC3) (Homo sapiens, UniProt P41968); assay: Radioligand binding, human melanocortin MC3 membranes, FlashPlate, [125I]-NDP-αMSH; conditions: compound at 10 μM, [125I]-NDP-αMSH
T8 construct: purchased Perkin Elmer Biosignal
T8 sequence (P41968 whole entry): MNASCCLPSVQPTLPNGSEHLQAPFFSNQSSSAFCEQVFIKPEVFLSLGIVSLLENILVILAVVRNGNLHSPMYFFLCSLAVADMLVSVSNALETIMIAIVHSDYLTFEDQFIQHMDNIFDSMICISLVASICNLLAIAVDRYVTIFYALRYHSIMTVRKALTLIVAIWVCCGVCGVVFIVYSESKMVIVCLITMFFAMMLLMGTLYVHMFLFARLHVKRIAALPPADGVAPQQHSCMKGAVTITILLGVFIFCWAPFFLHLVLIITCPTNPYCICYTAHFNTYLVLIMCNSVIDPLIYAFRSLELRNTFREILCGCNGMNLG
In short: as §1

[9] = target: T9, Human δ-opioid (DOP) (Homo sapiens, UniProt P41143); assay: Radioligand binding, human δ-opioid (DOP) membranes, FlashPlate, [3H]-Bremazocine; conditions: compound at 10 μM, [3H]-Bremazocine
T9 construct: purchased Perkin Elmer Biosignal
T9 sequence (P41143 whole entry): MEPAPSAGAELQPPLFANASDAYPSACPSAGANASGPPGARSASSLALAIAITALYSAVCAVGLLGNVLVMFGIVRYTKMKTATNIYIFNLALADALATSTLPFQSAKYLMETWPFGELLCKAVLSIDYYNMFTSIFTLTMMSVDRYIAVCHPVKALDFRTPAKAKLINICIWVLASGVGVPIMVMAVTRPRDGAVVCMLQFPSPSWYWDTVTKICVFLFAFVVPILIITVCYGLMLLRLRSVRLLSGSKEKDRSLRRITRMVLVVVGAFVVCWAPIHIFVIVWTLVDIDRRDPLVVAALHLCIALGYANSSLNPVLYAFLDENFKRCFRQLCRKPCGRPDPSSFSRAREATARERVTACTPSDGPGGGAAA
In short: as §1

[10] = target: T10, Human neuropeptide Y (NPY-Y1) (Homo sapiens, UniProt P25929); assay: Radioligand binding, human neuropeptide Y NPY-Y1 membranes, FlashPlate, [125I]-PYY; conditions: compound at 10 μM, [125I]-PYY
T10 construct: purchased Perkin Elmer Biosignal
T10 sequence (P25929 1-384): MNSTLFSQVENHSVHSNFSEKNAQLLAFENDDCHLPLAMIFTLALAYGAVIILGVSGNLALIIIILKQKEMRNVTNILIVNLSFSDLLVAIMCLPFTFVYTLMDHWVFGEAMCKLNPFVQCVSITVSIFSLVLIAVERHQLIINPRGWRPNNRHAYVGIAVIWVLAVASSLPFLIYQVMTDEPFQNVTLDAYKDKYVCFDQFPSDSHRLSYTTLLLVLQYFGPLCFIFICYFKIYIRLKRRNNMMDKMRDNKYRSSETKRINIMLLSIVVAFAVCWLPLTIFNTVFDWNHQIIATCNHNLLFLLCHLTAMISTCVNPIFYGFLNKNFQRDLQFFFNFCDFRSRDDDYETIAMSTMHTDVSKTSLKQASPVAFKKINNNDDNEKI
In short: as §1

[11] = target: T11, Human neurokinin (NK1) (Homo sapiens, UniProt P25103); assay: Radioligand binding, human neurokinin NK1 membranes, filtration, [125I]-Substance P; conditions: compound at 10 μM, [125I]-Substance P
T11 construct: purchased Perkin Elmer Biosignal
T11 sequence (P25103 whole entry): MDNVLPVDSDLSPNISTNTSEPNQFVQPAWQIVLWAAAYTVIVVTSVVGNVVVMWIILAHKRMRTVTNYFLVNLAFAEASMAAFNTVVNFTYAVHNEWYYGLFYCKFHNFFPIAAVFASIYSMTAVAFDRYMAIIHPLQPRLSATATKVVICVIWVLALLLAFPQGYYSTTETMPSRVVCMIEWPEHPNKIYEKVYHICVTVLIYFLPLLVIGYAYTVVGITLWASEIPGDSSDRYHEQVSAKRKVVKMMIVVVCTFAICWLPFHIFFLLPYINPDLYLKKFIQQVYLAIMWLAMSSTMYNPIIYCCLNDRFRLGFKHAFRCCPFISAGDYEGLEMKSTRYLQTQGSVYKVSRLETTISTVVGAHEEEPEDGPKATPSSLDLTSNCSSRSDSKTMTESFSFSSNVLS
In short: as §2

T1 sequence (P32245 whole entry): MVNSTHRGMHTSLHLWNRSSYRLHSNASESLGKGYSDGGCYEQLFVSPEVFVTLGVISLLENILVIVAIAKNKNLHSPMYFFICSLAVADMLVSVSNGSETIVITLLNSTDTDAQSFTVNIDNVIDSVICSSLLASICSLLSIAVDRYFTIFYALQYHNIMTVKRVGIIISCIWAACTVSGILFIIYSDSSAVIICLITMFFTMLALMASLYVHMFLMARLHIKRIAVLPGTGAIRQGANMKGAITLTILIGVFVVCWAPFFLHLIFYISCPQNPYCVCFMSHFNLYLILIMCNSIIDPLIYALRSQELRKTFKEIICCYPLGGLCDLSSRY

In the case of CO[C@H]1[C@H](O)[C@@H](COCc2ccccc2)OC(OCCc2ccccc2)[C@@H]1NC(=O)CCCNC(=N)N (stereo partly shown) [compound 118], the “A4 radioligand binding, percentage inhibition” value [1] was “− (“−” indicates less than 50% inhibition at 10 μM)”, the “A5 radioligand binding, percentage inhibition” value [2] was “− (“−” indicates less than 50% inhibition at 10 μM)” and the “A10 radioligand binding, percentage inhibition” value [3] was “− (“−” indicates less than 50% inhibition at 10 μM)”. The “A7 radioligand binding, percentage inhibition” value [4] was “− (“−” indicates less than 50% inhibition at 10 μM)”, the “A6 radioligand binding, percentage inhibition” value ([5]; [125I]-S36057) was “− (“−” indicates less than 50% inhibition at 10 μM)” and the “A11 radioligand binding, percentage inhibition” value [6] was “− (“−” indicates less than 50% inhibition at 10 μM)”. For the same compound, the “A2 radioligand binding, percentage inhibition” value [7] was “− (“−” indicates less than 50% inhibition at 10 μM)”, the “A3 radioligand binding, percentage inhibition” value [8] was “− (“−” indicates less than 50% inhibition at 10 μM)” and the “A1 radioligand binding, percentage inhibition” value [9] was “− (“−” indicates less than 50% inhibition at 10 μM)”. For the same compound, the “A9 radioligand binding, percentage inhibition” value [10] was “− (“−” indicates less than 50% inhibition at 10 μM)” and the “A8 radioligand binding, percentage inhibition” value [11] was “+ (“+” indicates greater than 50% inhibition at 10 μM)”.

In the case of CSC1OC(COCc2ccc(-c3ccccc3)cc2)C(O)C(OCc2ccc3ccccc3c2)C1NC(=O)CCNC(=N)N (stereo not shown) [compound 314], the “A4: inhibition of radioligand binding, human melanocortin (MC4)” value [1] was “− (“−” indicates less than 50% inhibition at 10 μM)”, the “A5: inhibition of radioligand binding, human melanocortin (MC5)” value [2] was “− (“−” indicates less than 50% inhibition at 10 μM)” and the “A10: inhibition of radioligand binding, human opioid (ORL1)” value [3] was “− (“−” indicates less than 50% inhibition at 10 μM)”. The “A7: inhibition of radioligand binding, human μ-opioid (MOP)” value [4] was “− (“−” indicates less than 50% inhibition at 10 μM)”, the “A6: inhibition of radioligand binding, human melanin-concentrating hormone (MCH1)” value ([5]; [125I]-S36057) was “− (“−” indicates less than 50% inhibition at 10 μM)” and the “A11: inhibition of radioligand binding, mouse urotensin (mUR2)” value [6] was “− (“−” indicates less than 50% inhibition at 10 μM)”. For the same compound, the “A2: inhibition of radioligand binding, human κ-opioid (KOP)” value [7] was “− (“−” indicates less than 50% inhibition at 10 μM)”, the “A3: inhibition of radioligand binding, human melanocortin (MC3)” value [8] was “− (“−” indicates less than 50% inhibition at 10 μM)” and the “A1: inhibition of radioligand binding, human δ-opioid (DOP)” value [9] was “− (“−” indicates less than 50% inhibition at 10 μM)”. The “A9: inhibition of radioligand binding, human neuropeptide Y (NPY-Y1)” value [10] was “− (“−” indicates less than 50% inhibition at 10 μM)” and the “A8: inhibition of radioligand binding, human neurokinin (NK1)” value [11] was “+ (“+” indicates greater than 50% inhibition at 10 μM)”.

COCC1OC(OCc2ccc3ccccc3c2)C(NC(=O)CCCN)C(OCc2ccc(Cl)cc2)C1O (stereo not shown) [compound 239] was tested, and the “A4: inhibition of radioligand binding” value ([1]; FlashPlate) was “− (“−” indicates less than 50% inhibition at 10 μM)”, the “A5: inhibition of radioligand binding” value ([2]; FlashPlate) was “+ (“+” indicates greater than 50% inhibition at 10 μM)” and the “A10: inhibition of radioligand binding” value ([3]; FlashPlate) was “− (“−” indicates less than 50% inhibition at 10 μM)”. For the same compound, the “A7: inhibition of radioligand binding” value ([4]; FlashPlate) was “− (“−” indicates less than 50% inhibition at 10 μM)”, the “A6: inhibition of radioligand binding” value ([5]; [125I]-S36057, FlashPlate) was “− (“−” indicates less than 50% inhibition at 10 μM)” and the “A11: inhibition of radioligand binding” value ([6]; FlashPlate) was “− (“−” indicates less than 50% inhibition at 10 μM)”. The “A2: inhibition of radioligand binding” value ([7]; filtration) was “− (“−” indicates less than 50% inhibition at 10 μM)”, the “A3: inhibition of radioligand binding” value ([8]; FlashPlate) was “− (“−” indicates less than 50% inhibition at 10 μM)” and the “A1: inhibition of radioligand binding” value ([9]; FlashPlate) was “− (“−” indicates less than 50% inhibition at 10 μM)”. The “A9: inhibition of radioligand binding” value ([10]; FlashPlate) was “− (“−” indicates less than 50% inhibition at 10 μM)” and the “A8: inhibition of radioligand binding” value ([11]; filtration) was “+ (“+” indicates greater than 50% inhibition at 10 μM)”.

NCCC(=O)NC1C(OCc2ccc3ccccc3c2)OC(COCc2ccc3ccccc3c2)C(O)C1OCc1ccc(Cl)cc1 (stereo not shown) [compound 381] was tested, and the “A4: inhibition of radioligand binding” value ([1]; human MC4 membranes) was “+ (“+” indicates greater than 50% inhibition at 10 μM)”, the “A5: inhibition of radioligand binding” value ([2]; human MC5 membranes) was “+ (“+” indicates greater than 50% inhibition at 10 μM)” and the “A10: inhibition of radioligand binding” value ([3]; human ORL1 membranes) was “− (“−” indicates less than 50% inhibition at 10 μM)”. The “A7: inhibition of radioligand binding” value ([4]; human MOP membranes) was “− (“−” indicates less than 50% inhibition at 10 μM)”, the “A6: inhibition of radioligand binding” value ([5]; [125I]-S36057, human MCH1 membranes) was “− (“−” indicates less than 50% inhibition at 10 μM)” and the “A11: inhibition of radioligand binding” value ([6]; mouse mUR2 membranes) was “− (“−” indicates less than 50% inhibition at 10 μM)”. The “A2: inhibition of radioligand binding” value ([7]; human KOP membranes) was “− (“−” indicates less than 50% inhibition at 10 μM)”, the “A3: inhibition of radioligand binding” value ([8]; human MC3 membranes) was “+ (“+” indicates greater than 50% inhibition at 10 μM)” and the “A1: inhibition of radioligand binding” value ([9]; human DOP membranes) was “− (“−” indicates less than 50% inhibition at 10 μM)”. The “A9: inhibition of radioligand binding” value ([10]; human NPY-Y1 membranes) was “− (“−” indicates less than 50% inhibition at 10 μM)” and the “A8: inhibition of radioligand binding” value ([11]; human NK1 membranes) was “+ (“+” indicates greater than 50% inhibition at 10 μM)”.

For CO[C@H]1[C@H](O)[C@@H](COCc2ccc(-c3ccccc3)cc2)OC(OCc2ccc(Cl)cc2)[C@@H]1NC(=O)CCCNC(=N)N (stereo partly shown) [compound 96], the “A4 radioligand binding, percentage inhibition” value [1] was “+ (“+” indicates greater than 50% inhibition at 10 μM)”, the “A5 radioligand binding, percentage inhibition” value [2] was “+ (“+” indicates greater than 50% inhibition at 10 μM)” and the “A10 radioligand binding, percentage inhibition” value [3] was “+ (“+” indicates greater than 50% inhibition at 10 μM)”. The “A7 radioligand binding, percentage inhibition” value [4] was “− (“−” indicates less than 50% inhibition at 10 μM)”, the “A6 radioligand binding, percentage inhibition” value ([5]; [125I]-S36057) was “+ (“+” indicates greater than 50% inhibition at 10 μM)” and the “A11 radioligand binding, percentage inhibition” value [6] was “− (“−” indicates less than 50% inhibition at 10 μM)”. For the same compound, the “A2 radioligand binding, percentage inhibition” value [7] was “+ (“+” indicates greater than 50% inhibition at 10 μM)”, the “A3 radioligand binding, percentage inhibition” value [8] was “+ (“+” indicates greater than 50% inhibition at 10 μM)” and the “A1 radioligand binding, percentage inhibition” value [9] was “− (“−” indicates less than 50% inhibition at 10 μM)”. The “A9 radioligand binding, percentage inhibition” value [10] was “+ (“+” indicates greater than 50% inhibition at 10 μM)” and the “A8 radioligand binding, percentage inhibition” value [11] was “+ (“+” indicates greater than 50% inhibition at 10 μM)”.
